Experiments:
[1] = target: PTGER2 (EP2) (Homo sapiens (Human), UniProt P43116); assay: hEP2 b-arrestin assay (PathHunter HEK 293 PTGER2 b-arrestin cells); type: cell-based; details: antagonistic activity, beta-arrestin assay; read-out: hEP2 b-arr IC50
Protocol: Plate is pre-incubated 15 minutes at 37° C. Then five microliters of PGE2 (final conc. 5 μM) are transferred into the assay plate. Plate is incubated 120 minutes at 37° C.
(each concentration is measured in duplicate)

[2] = target: PTGER4 (EP4) (Homo sapiens (Human), UniProt P35408); assay: cell-based
PTGER4 (EP4), sequence (P35408 whole entry): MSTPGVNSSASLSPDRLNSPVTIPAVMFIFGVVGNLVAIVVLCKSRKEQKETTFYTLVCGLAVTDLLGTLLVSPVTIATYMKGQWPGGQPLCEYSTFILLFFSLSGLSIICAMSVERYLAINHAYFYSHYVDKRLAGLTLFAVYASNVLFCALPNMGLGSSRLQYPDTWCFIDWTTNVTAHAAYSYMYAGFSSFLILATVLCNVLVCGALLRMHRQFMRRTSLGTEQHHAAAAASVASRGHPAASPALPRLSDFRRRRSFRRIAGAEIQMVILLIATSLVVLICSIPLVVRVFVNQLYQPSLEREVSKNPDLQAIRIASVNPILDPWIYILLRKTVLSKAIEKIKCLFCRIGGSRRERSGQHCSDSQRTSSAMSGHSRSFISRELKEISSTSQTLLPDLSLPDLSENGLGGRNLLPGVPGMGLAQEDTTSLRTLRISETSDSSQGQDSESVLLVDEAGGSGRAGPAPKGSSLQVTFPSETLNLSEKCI
Text: The system is based on the Enzyme Fragment Complementation Technology. Two complementing fragments of the b-galactosidase enzyme are expressed within stably transfected cells. The larger portion of b-gal, termed EA for Enzyme Acceptor, is fused to the C-terminus of b-arrestin 2. The smaller fragment, termed ProLink™ tag, is fused to PTGER2 (EP2) or PTRGER4 (EP4) at the C-terminus. Upon activation, b-arrestin is recruited which forces the interaction of ProLink and EA, allowing complementation of the two fragments of b-gal and the formation of a functional enzyme which is capable of hydrolysing the substrate and generating a chemiluminescent signal.
Plate is incubated at 37° C., 5% CO2 for 24 hours.
Stock solutions of test compounds are made at a concentration of 10 mM in DMSO, and serially diluted in DMSO to concentrations required for inhibition dose response curves (tested concentration range 10 μM-2 nM or 1 μM-0.2 nM).
Five microliters of diluted compounds are transferred into the assay plate. Plate is pre-incubated 15 minutes at 37° C. Then five microliters of PGE2 (final conc. 20 nM) are transferred into the assay plate. Plate is incubated 120 minutes at 37° C.
Twelve I of reagent are transferred to the assay plate and incubate for 1 hour at RT in the dark. Luminescence counts are read on a BMG Fluostar Optima reader according to manufacturer's instructions.
For each compound concentration calculate of the percentage of activity compared to DMSO control value as average ±STDEV. (each concentration is measured in duplicate)

PTGER2 (EP2), sequence (P43116 whole entry): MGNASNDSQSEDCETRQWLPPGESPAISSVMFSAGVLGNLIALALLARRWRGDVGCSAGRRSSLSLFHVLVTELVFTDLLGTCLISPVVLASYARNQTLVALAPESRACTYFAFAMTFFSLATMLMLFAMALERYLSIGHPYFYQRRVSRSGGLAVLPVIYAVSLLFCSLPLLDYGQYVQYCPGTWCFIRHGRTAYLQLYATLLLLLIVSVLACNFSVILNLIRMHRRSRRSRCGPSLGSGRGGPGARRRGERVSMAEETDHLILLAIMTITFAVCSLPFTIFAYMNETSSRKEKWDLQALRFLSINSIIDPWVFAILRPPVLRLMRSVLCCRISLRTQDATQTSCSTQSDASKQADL

IC50 [1] [nM] | IC50 [2] [nM] | SMILES
66 | 292 | CCCOc1cc(-c2cc(NCCc3cc4ccsc4cc3OC)ncn2)ccc1CC(=O)O [Example 392, (4-{6-[2-(6-Methoxy-benzo[b]thiophen-5-yl)-ethylamino]-pyrimidin-4-yl}-2-propoxy-phenyl)-acetic acid]
155 | 166 | CCCOc1cc(-c2cc(NCCc3ccc4sccc4c3F)ncn2)ccc1CC(=O)O [Example 393, (4-{6-[2-(4-Fluoro-benzo[b]thiophen-5-yl)-ethylamino]-pyrimidin-4-yl}-2-propoxy-phenyl)-acetic acid]
10 | 30 | CCOc1cc(-c2cc(NCCc3c(OC)cc4c(c3C)OCCO4)ncn2)ccc1CC(=O)O [Example 399, (2-Ethoxy-4-{6-[2-(7-methoxy-5-methyl-2,3-dihydro-benzo[1,4]dioxin-6-yl)-ethylamino]-pyrimidin-4-yl}-phenyl)-acetic acid]
20 | 80 | CCOc1cc(-c2cc(NCCc3cc4ccsc4c(F)c3OC)ncn2)ccc1C(=O)O [Example 404, 2-Ethoxy-4-{6-[2-(7-fluoro-6-methoxy-benzo[b]thiophen-5-yl)-ethylamino]-pyrimidin-4-yl}-benzoic acid]
9 | 79 | COc1c(CCNc2cc(-c3ccc(C(=O)O)c(SC)c3)ncn2)cc2ccsc2c1F [Example 405, 4-{6-[2-(7-Fluoro-6-methoxy-benzo[b]thiophen-5-yl)-ethylamino]-pyrimidin-4-yl}-2-methylsulfanyl-benzoic acid]
45 | 62 | CCOc1cc(-c2cc(NCCc3cc4ccsc4c(F)c3OC)ncn2)ccc1CC(=O)O [Example 406, (2-Ethoxy-4-{6-[2-(7-fluoro-6-methoxy-benzo[b]thiophen-5-yl)-ethylamino]-pyrimidin-4-yl}-phenyl)-acetic acid]
260 | 57 | CC(C)Cc1cc(-c2cc(NCCc3ccc4sccc4c3F)ncn2)ccc1CC(=O)O [Example 409, (4-{6-[2-(4-Fluoro-benzo[b]thiophen-5-yl)-ethylamino]-pyrimidin-4-yl}-2-isobutyl-phenyl)-acetic acid]
153 | 113 | COc1c(CCNc2cc(-c3ccc(CC(=O)O)c(CC(C)C)c3)ncn2)cc2ccsc2c1F [Example 410, (4-{6-[2-(7-Fluoro-6-methoxy-benzo[b]thiophen-5-yl)-ethylamino]-pyrimidin-4-yl}-2-isobutyl-phenyl)-acetic acid]
62 | 41 | CC(C)Cc1cc(-c2cc(NCCc3ccc4sccc4c3F)ncn2)ccc1C(=O)O [Example 413, 4-{6-[2-(4-Fluoro-benzo[b]thiophen-5-yl)-ethylamino]-pyrimidin-4-yl}-2-isobutyl-benzoic acid]
219 | 48 | CC(C)Cc1cc(-c2cc(NCCc3cc(F)c4sccc4c3)ncn2)ccc1C(=O)O [Example 414, 4-{6-[2-(7-Fluoro-benzo[b]thiophen-5-yl)-ethylamino]-pyrimidin-4-yl}-2-isobutyl-benzoic acid]
63 | 52 | COc1c(CCNc2cc(-c3ccc(C(=O)O)c(CC(C)C)c3)ncn2)cc2ccsc2c1F [Example 415, 4-{6-[2-(7-Fluoro-6-methoxy-benzo[b]thiophen-5-yl)-ethylamino]-pyrimidin-4-yl}-2-isobutyl-benzoic acid]
84 | 22 | CCOc1cc(-c2cc(NCCc3ccc4sccc4c3F)ncn2)ccc1OCCC(=O)O [Example 421, 3-(2-Ethoxy-4-{6-[2-(4-fluoro-benzo[b]thiophen-5-yl)-ethylamino]-pyrimidin-4-yl}-phenoxy)-propionic acid]
249 | 23 | CCOc1cc(-c2cc(NCCc3cc(F)c4sccc4c3)ncn2)ccc1OCCC(=O)O [Example 422, 3-(2-Ethoxy-4-{6-[2-(7-fluoro-benzo[b]thiophen-5-yl)-ethylamino]-pyrimidin-4-yl}-phenoxy)-propionic acid]
49 | 10 | CCOc1cc(-c2cc(NCCc3c(OC)cc4ccccc4c3C)ncn2)ccc1OCCC(=O)O [Example 423, 3-(2-Ethoxy-4-{6-[2-(3-methoxy-1-methyl-naphthalen-2-yl)-ethylamino]-pyrimidin-4-yl}-phenoxy)-propionic acid]

More lines, now with the values behind:

SMILES | IC50 [1] [nM] | IC50 [2] [nM]
COc1cc2c(c(C)c1CCNc1cc(-c3ccc(C(=O)O)c(OC4CCC4)c3)ncn1)OCCO2 [Example 396, 2-Cyclobutoxy-4-{6-[2-(7-methoxy-5-methyl-2,3-dihydro-benzo[1,4]dioxin-6-yl)-ethylamino]-pyrimidin-4-yl}-benzoic acid] | 2 | 44
CCCc1cc(-c2cc(NCCc3c(OC)cc4c(c3C)OCCO4)ncn2)ccc1CC(=O)O [Example 397, (4-{6-[2-(7-Methoxy-5-methyl-2,3-dihydro-benzo[1,4]dioxin-6-yl)-ethylamino]-pyrimidin-4-yl}-2-propyl-phenyl)-acetic acid] | 7 | 35
COc1cc2c(c(C)c1CCNc1cc(-c3ccc(C(=O)O)c(SC)c3)ncn1)OCCO2 [Example 400, 4-{6-[2-(7-Methoxy-5-methyl-2,3-dihydro-benzo[1,4]dioxin-6-yl)-ethylamino]-pyrimidin-4-yl}-2-methylsulfanyl-benzoic acid] | 2 | 44
CCCc1cc(-c2cc(NCCc3cc4c(cc3OCC)OCCO4)ncn2)ccc1CC(=O)O [Example 402, (4-{6-[2-(7-Ethoxy-2,3-dihydro-benzo[1,4]dioxin-6-yl)-ethylamino]-pyrimidin-4-yl}-2-propyl-phenyl)-acetic acid] | 22 | 61
CCOc1cc2c(cc1CCNc1cc(-c3cc(F)c(CC(=O)O)c(OCC)c3)ncn1)OCCO2 [Example 403, (2-Ethoxy-4-{6-[2-(7-ethoxy-2,3-dihydro-benzo[1,4]dioxin-6-yl)-ethylamino]-pyrimidin-4-yl}-6-fluoro-phenyl)-acetic acid] | 57 | 65
CCCc1cc(-c2cc(NCCc3c(OC)cc4c(c3F)OCCO4)ncn2)ccc1CC(=O)O [Example 408, (4-{6-[2-(5-Fluoro-7-methoxy-2,3-dihydro-benzo[1,4]dioxin-6-yl)-ethylamino]-pyrimidin-4-yl}-2-propyl-phenyl)-acetic acid] | 29 | 24
COc1cc2c(cc1CCNc1cc(-c3ccc(CC(=O)O)c(CC(C)C)c3)ncn1)OCCO2 [Example 411, (2-Isobutyl-4-{6-[2-(7-methoxy-2,3-dihydro-benzo[1,4]dioxin-6-yl)-ethylamino]-pyrimidin-4-yl}-phenyl)-acetic acid] | 97 | 31
CCOc1cc2c(cc1CCNc1cc(-c3ccc(CC(=O)O)c(CC(C)C)c3)ncn1)OCCO2 [Example 412, (4-{6-[2-(7-Ethoxy-2,3-dihydro-benzo[1,4]dioxin-6-yl)-ethylamino]-pyrimidin-4-yl}-2-isobutyl-phenyl)-acetic acid] | 20 | 40
CCOc1cc2c(cc1CCNc1cc(-c3ccc(C(=O)O)c(CC(C)C)c3)ncn1)OCCO2 [Example 417, 4-{6-[2-(7-Ethoxy-2,3-dihydro-benzo[1,4]dioxin-6-yl)-ethylamino]-pyrimidin-4-yl}-2-isobutyl-benzoic acid] | 38 | 174
